Molecules are shown by their SMILES. Like-named read-outs stand apart in the source and are kept apart here.

The results in this text go back to patent publication US11033539B2, “Compounds of formulas (VII), (VIII), (IX), (XI), (XII), (XIII), and (XIV) as muscarinic receptor 4(M4) antagonists for treating neurological diseases” (Neurocrine Biosciences, Inc., priority 2015, dated 2021).

One experiment deals with human M5 receptor (Homo sapiens (Human), UniProt P08912). The experiment in a line: Radioligand (tritiated N-methylscopolamine) binding assay, M5. Put shortly: (§1)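 Test compound (12 concentrations, 10 μM to […]), 1.5 nM radioligand and CHO receptor membranes were co-incubated at 37 °C for 90 minutes in 50 mM HEPES buffer with 100 mM NaCl, 5 mM MgCl2 and 1 mM EDTA, pH 7.4. Membranes were then harvested onto polyethylenimine-pretreated filters and radioactivity was counted to determine Ki.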
Chain of human M5 receptor (P08912 whole entry): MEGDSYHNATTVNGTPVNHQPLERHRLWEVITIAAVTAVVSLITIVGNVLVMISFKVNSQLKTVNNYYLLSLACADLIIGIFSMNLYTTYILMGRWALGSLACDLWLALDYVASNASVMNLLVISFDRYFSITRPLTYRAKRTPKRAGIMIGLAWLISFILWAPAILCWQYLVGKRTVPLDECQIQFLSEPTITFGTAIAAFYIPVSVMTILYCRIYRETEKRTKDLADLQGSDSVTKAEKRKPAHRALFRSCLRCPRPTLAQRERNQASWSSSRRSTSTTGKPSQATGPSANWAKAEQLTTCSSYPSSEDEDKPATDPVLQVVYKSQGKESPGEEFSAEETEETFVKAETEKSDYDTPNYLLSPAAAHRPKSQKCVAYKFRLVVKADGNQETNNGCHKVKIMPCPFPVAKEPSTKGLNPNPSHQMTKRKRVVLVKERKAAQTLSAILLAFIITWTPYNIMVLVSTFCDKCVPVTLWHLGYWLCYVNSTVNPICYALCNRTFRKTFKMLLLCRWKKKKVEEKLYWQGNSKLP

In another experiment the target is human M4 receptor (Homo sapiens (Human), UniProt P08173). Nature of the experiment: Radioligand (tritiated N-methylscopolamine) binding assay, M4. The settings on record: Ki against the M4 receptor; membranes from CHO cells expressing human M4; tritiated N-methylscopolamine 1.5 nM; read-out: Ki. In a few lines: as §1
Chain of human M4 receptor (P08173 whole entry): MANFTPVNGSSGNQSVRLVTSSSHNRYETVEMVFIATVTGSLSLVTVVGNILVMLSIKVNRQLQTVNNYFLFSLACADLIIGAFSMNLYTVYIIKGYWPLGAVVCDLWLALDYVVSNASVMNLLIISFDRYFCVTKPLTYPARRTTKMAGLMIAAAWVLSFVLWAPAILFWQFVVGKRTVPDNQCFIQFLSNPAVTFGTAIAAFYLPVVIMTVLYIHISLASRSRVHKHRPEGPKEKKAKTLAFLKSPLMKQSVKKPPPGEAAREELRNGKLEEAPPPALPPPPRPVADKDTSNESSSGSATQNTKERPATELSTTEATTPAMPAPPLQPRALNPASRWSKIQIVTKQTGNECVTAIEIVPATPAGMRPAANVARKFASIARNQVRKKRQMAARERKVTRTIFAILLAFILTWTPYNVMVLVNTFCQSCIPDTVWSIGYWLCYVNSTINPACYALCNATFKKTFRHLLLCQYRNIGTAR
Another experiment concerns the target human M1 receptor (Homo sapiens (Human), UniProt P11229). Nature of the experiment: Radioligand (tritiated N-methylscopolamine) binding assay, M1. Put shortly: as §1
The target of a further experiment is human M2 receptor (Homo sapiens (Human), UniProt P08172). Nature of the experiment: Radioligand (tritiated N-methylscopolamine) binding assay, M2. Put shortly:
as §1

Another experiment deals with human M3 receptor (Homo sapiens (Human), UniProt P20309). The experiment in a line: Radioligand (tritiated N-methylscopolamine) binding assay, M3. The settings on record: CHO cell membranes expressing human M3; 1.5 nM tritiated N-methylscopolamine; 90 min, 37° C.; read-out: Ki against M3 receptor (Table 21, M3). Put shortly:
as §1

[1] abbreviates: CHO cell membranes expressing human M5, 1.5 nM tritiated N-methylscopolamine, 90 min, 37° C., read-out: Ki against M5 receptor (Table 21, M5).
[2] abbreviates: CHO cell membranes expressing human M1, 1.5 nM tritiated N-methylscopolamine, 90 min, 37° C., read-out: Ki against M1 receptor (Table 21, M1).
The mark [3] stands for this setting: CHO cell membranes expressing human M2, 1.5 nM tritiated N-methylscopolamine, 90 min, 37° C., read-out: Ki against M2 receptor (Table 21, M2).

Chain of human M1 receptor (P11229 whole entry): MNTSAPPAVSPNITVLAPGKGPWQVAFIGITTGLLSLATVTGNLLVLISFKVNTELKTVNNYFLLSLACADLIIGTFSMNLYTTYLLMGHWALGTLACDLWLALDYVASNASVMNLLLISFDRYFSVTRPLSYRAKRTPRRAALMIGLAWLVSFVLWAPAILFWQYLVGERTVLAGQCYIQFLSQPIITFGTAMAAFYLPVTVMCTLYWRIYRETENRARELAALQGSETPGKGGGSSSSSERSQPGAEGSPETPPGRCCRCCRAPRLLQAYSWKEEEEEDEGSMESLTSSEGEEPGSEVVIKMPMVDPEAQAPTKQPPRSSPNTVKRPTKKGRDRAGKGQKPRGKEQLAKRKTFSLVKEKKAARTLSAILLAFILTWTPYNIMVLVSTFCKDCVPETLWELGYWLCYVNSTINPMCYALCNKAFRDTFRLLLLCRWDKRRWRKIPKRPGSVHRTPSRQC
Chain of human M3 receptor (P20309 whole entry): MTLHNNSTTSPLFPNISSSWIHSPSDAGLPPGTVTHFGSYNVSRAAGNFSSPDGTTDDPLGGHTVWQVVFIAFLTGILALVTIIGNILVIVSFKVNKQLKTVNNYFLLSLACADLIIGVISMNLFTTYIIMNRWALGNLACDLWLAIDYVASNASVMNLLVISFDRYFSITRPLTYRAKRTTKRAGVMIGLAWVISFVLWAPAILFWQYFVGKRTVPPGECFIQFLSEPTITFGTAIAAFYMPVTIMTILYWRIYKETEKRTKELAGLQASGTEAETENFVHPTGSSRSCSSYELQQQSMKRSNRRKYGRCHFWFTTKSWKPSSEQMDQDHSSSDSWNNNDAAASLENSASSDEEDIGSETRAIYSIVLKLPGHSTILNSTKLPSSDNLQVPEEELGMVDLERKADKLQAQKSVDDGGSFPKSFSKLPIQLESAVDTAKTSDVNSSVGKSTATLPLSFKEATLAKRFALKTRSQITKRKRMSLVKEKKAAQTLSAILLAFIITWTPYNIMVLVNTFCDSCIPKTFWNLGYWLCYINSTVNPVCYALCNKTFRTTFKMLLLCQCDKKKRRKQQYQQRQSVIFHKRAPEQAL
Chain of human M2 receptor (P08172 whole entry): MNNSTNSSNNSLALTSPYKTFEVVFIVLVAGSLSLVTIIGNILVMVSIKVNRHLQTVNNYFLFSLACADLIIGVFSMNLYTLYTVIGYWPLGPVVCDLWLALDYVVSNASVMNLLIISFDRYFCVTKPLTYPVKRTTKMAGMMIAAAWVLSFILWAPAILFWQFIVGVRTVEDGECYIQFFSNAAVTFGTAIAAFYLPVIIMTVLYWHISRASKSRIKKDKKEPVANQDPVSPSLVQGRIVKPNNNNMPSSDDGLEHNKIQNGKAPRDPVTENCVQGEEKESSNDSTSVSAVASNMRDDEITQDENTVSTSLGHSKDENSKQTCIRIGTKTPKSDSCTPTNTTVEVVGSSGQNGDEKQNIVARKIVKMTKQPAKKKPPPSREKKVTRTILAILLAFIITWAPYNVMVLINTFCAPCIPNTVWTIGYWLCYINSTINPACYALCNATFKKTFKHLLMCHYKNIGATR

On to `C[C@@H]1CN(c2ccc(C#N)c(F)c2)CCN1C(=O)NCCC1CCN(Cc2ccccc2)CC1` [22-15], for which the Ki was 100 to 1000 nM at human M5 receptor (setting [1]); < 10 nM at human M4 receptor; 100 to 1000 nM on human M1 receptor (setting [2]); 10 to 100 nM at human M2 receptor (setting [3]); > 1000 nM at human M3 receptor.

On to `C[C@@H]1CN(c2ccc(C#N)c(OC(F)(F)F)c2)CCN1C(=O)NCCC1CCN(Cc2ccccc2)CC1` [22-17], for which the Ki on human M5 receptor (setting [1]) is 100 to 1000 nM; on human M4 receptor it was < 10 nM; on human M1 receptor (setting [2]), 100 to 1000 nM; at human M2 receptor (setting [3]) it was 10 to 100 nM; at human M3 receptor, > 1000 nM.

For `C[C@@H]1CN(c2cnc(C(F)(F)F)cn2)CCN1C(=O)NCCC1CCN(Cc2ccccc2)CC1` [22-22], the inhibition constant Ki at human M5 receptor (setting [1]) is > 1000 nM; at human M4 receptor, < 10 nM; at human M1 receptor (setting [2]), 100 to 1000 nM; on human M2 receptor (setting [3]), 10 to 100 nM; on human M3 receptor, > 1000 nM.

With `C[C@@H]1CN(c2cnc(C(F)(F)F)cn2)C[C@H](C)N1C(=O)NCCC1CCN(Cc2ccccc2)CC1` [22-23], the Ki on human M5 receptor (setting [1]) was 100 to 1000 nM; on human M4 receptor it was < 10 nM; on human M1 receptor (setting [2]), 100 to 1000 nM; on human M2 receptor (setting [3]) it was < 10 nM; at human M3 receptor, 100 to 1000 nM.

Turning to `COc1ccc(N2C[C@@H](C)N(C(=O)NCCC3CCN(Cc4ccccc4)CC3)[C@@H](C)C2)cc1C#N` [22-24], the inhibition constant (Ki) at human M5 receptor (setting [1]) is > 1000 nM; on human M4 receptor it was < 10 nM; at human M1 receptor (setting [2]), 100 to 1000 nM; at human M2 receptor (setting [3]), 10 to 100 nM; on human M3 receptor, > 1000 nM.

`O=C(NCCC1CCN(Cc2ccccc2)CC1)N1CCN(c2cnc(C(F)(F)F)cn2)CC1` [22-25, N-[2-(1-benzylpiperidin-4-yl)ethyl]-4-[5-(trifluoromethyl)pyrazin-2-yl]piperazine-1-carboxamide]: the Ki at human M5 receptor (setting [1]) was > 1000 nM; at human M4 receptor, < 10 nM; at human M1 receptor (setting [2]) it was > 1000 nM; at human M2 receptor (setting [3]) it was 10 to 100 nM; on human M3 receptor, > 1000 nM.

Turning to `C[C@@H]1CN(c2cc(F)nc(F)c2)CCN1C(=O)NCCC1CCN(Cc2ccccc2)CC1` [22-30], the inhibitory constant (Ki) is > 1000 nM at human M5 receptor (setting [1]); < 10 nM on human M4 receptor; 100 to 1000 nM on human M1 receptor (setting [2]); 10 to 100 nM on human M2 receptor (setting [3]); > 1000 nM on human M3 receptor.

Consider `C[C@@H]1CN(c2ccc(C#N)c(C(F)(F)F)c2)CCN1C(=O)NCCC1CCN(Cc2ccccc2)CC1` [22-31], for which the Ki at human M5 receptor was 100 to 1000 nM; on human M4 receptor it was < 10 nM; at human M1 receptor it was 10 to 100 nM; on human M2 receptor, 10 to 100 nM; on human M3 receptor, > 1000 nM.

On to `COc1cc(N2CCN(C(=O)NCCC3CCN(Cc4ccccc4)CC3)[C@H](C)C2)cc(F)c1C#N` [22-32], for which the Ki at human M5 receptor (setting [1]) was 100 to 1000 nM; at human M4 receptor, < 10 nM; at human M1 receptor (setting [2]), 100 to 1000 nM; on human M2 receptor (setting [3]) it was 100 to 1000 nM; at human M3 receptor, > 1000 nM.

For the compound `C[C@@H]1CN(c2ncc(C(F)(F)F)c(N)n2)C[C@@H](C)N1C(=O)NCCC1CCN(Cc2ccccc2)CC1` [26-1, (2R,6R)-4-[4-amino-5-(trifluoromethyl)pyrimidin-2-yl]-N-[2-(1-benzylpiperidin-4-yl)ethyl]-2,6-dimethylpiperazine-1-carboxamide], the Ki at human M5 receptor (setting [1]) was > 1000 nM; at human M4 receptor it was < 10 nM; on human M1 receptor (setting [2]), 100 to 1000 nM; at human M2 receptor (setting [3]) it was 10 to 100 nM; on human M3 receptor it was > 1000 nM.

Regarding `C[C@@H]1CN(c2ncc(C#N)cn2)C[C@@H](C)N1C(=O)NCCC1CCN(Cc2ccccc2)CC1` [26-2], the Ki on human M5 receptor (setting [1]) is > 1000 nM; at human M4 receptor it was < 10 nM; at human M1 receptor (setting [2]), > 1000 nM; at human M2 receptor (setting [3]), 100 to 1000 nM; at human M3 receptor, > 1000 nM.

For the compound `C[C@@H]1CN(c2cnc(C(F)(F)F)cn2)C[C@@H](C)N1C(=O)NCCC1CCN(Cc2ccccc2)CC1` [26-4, (2R,6R)-N-[2-(1-benzylpiperidin-4-yl)ethyl]-2,6-dimethyl-4-[5-(trifluoromethyl)pyrazin-2-yl]piperazine-1-carboxamide], the inhibitory constant (Ki) on human M5 receptor (setting [1]) is > 1000 nM; at human M4 receptor, < 10 nM; at human M1 receptor (setting [2]), > 1000 nM; on human M2 receptor (setting [3]), 100 to 1000 nM; at human M3 receptor, > 1000 nM.

Regarding `C[C@@H]1CN(c2cnc(C(F)(F)F)nc2)C[C@@H](C)N1C(=O)NCCC1CCN(Cc2ccccc2)CC1` [26-6], the inhibition constant (Ki) is 100 to 1000 nM at human M5 receptor (setting [1]); < 10 nM on human M4 receptor; 10 to 100 nM on human M1 receptor (setting [2]); 10 to 100 nM on human M2 receptor (setting [3]); 100 to 1000 nM on human M3 receptor.
